Tests used:
BTK protein kinase = BTK protein kinase (Homo sapiens, UniProt Q06187); test: In vitro enzymatic activity against BTK (ADP-Glo); assay type: biochemical; settings: for IC50: compound with BTK 4 hours at room temperature, ATP 10 μM, 37° C. 1 hour, values in nM
Outline: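 BTK (1.5 ng/μL enzyme solution) was preincubated with compound (final 10 μM to 0.003 μM) for 4 h at room temperature. Reaction ran 1 h at 37 °C with 10 μM ATP and 0.2 μg/μL poly(Glu,Tyr) 4:1 (final). ADP formed was measured by ADP-Glo luminescence, and IC50 was obtained by curve plotting.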

[1] = test system: acute myelocytic leukemia cell strains HL-60; test: Cell proliferation (Cell Titer-Glo), HL60; assay type: cell-based; settings: Homo sapiens, HL60, 72 hours, read-out: Effects on cell proliferation (GI50)
Protocol: (§1) The selectivity of Compound 1 in inhibiting the proliferation of cancer cells was further evaluated by testing the effect of Btk inhibitors on the growth of cancer cells. […]
(§2) In this example different concentrations (0.000508 μM, 0.00152 μM, 0.00457 μM, 0.0137 μM, 0.0411 μM, 0.123 μM, 0.370 μM, 1.11 μM, 3.33 μM, 10 μM) of Compound 1 and Compound 6 were respectively added into the above cells which were then cultured for 72 hours. The number of viable cells was determined via quantitative determination of ATP in living cells by using Cell Titer-Glo® (Promega, the USA) Chemical Luminescent Cell Viability Assay kit.

[2] = test system: diffuse large B-cell lymphoma cell lines TMD8; test: Cell proliferation (Cell Titer-Glo), TMD8; assay type: cell-based; settings: Homo sapiens, TMD8, 72 h, read-out: Effects on cell proliferation (GI50)
Description: The following cells were adopted in the example: acute myelocytic leukemia cell strains (acute myelocytic leukemia, AML) HL-60, B-lymphoma cell Ramos, colon cancer cells HCT116, leukemic cells K562, B-cell lymphoma cells U2932, diffuse large B-cell lymphoma cell line OCI-LY10, diffuse histiocytic lymphoma cells SU-DHL-2, diffuse large B-cell lymphoma cell lines TMD8, leukemia cell OCI-AML-3, acute promyelocytic leukemia cell line NB-4 (Lu+), MDS-RAEB (myelodysplastic syndrome—excessive blasts) cell lines SKM-1, human leukocyte leukemia cells HEL, acute myeloid leukemia cell lines (acute myelocytic leukemia, AML) U937, acute myeloid leukemia cell lines (acute myelocytic leukemia, AML) MOLM14, acute myeloid leukemia cell lines (acute myelocytic leukemia, AML) MOLM13, acute myeloid leukemia cell lines (acute myelocytic leukemia, AML) M-07e, acute myeloid leukemia cell lines (acute myelocytic leukemia, AML) MV4-11, acute myeloid leukemia cell lines (acute myelocytic leukemia, AML) MOLM16, diffuse large B-cell lymphoma cell lines Pfeiffer, multiple myeloma cell lines (multiple myeloma) RPM18226, bone marrow plasma cell tumor cells AMO-1, mouse pro-B cells BaF3, all purchased from ATCC.

[3] = test system: human leukocyte leukemia cells HEL; test: Cell proliferation (Cell Titer-Glo), HEL; assay type: cell-based; settings: 72 hours, read-out: Effects on cell proliferation (GI50)
Protocol: as §1, §2

[4] = test system: acute myeloid leukemia cell lines U937; test: Cell proliferation (Cell Titer-Glo), U937; assay type: cell-based; settings: Homo sapiens, U-937; U937, 72 hours; read-out: Effects on cell proliferation (GI50)
Protocol: as §1, §2

leukemia cell OCI-AML-3 = test: Cell proliferation (Cell Titer-Glo), OCI-AML-3; assay type: cell-based; settings: Homo sapiens; OCI-AML-3, 72 hours; read-out: Effects on cell proliferation (GI50)
Protocol: as §1, §2

[5] = test system: MDS-RAEB cell lines SKM-1; test: Cell proliferation (Cell Titer-Glo), SKM-1; assay type: cell-based; settings: Homo sapiens; SKM-1, 72 hours; read-out: Effects on cell proliferation (GI50)
Protocol: as §1, §2

[6] = test system: diffuse histiocytic lymphoma cells SU-DHL-2; test: Cell proliferation (Cell Titer-Glo), SU-DHL-2; assay type: cell-based; settings: Homo sapiens; SU-DHL-2, 72 hours; read-out: Effects on cell proliferation (GI50)
Protocol: as §1, §2

mouse pro-B cells BaF3 = test: Cell proliferation (Cell Titer-Glo), WT-BaF3; assay type: cell-based; settings: WT-BaF3, 72 hours, read-out: Effects on cell proliferation (GI50)
Protocol: as §1, §2

[7] = molecular target: T1, TEL-JAK3-BaF3 cells (stably expressing TEL-JAK3 activated kinase) (Homo sapiens, UniProt P52333); test: Cell proliferation (Cell Titer-Glo), BaF3-tel-JAK3; assay type: cell-based; settings: BaF3-tel-JAK3 (mouse BaF3 cells), 72 hours; read-out: Effects on cell proliferation (GI50)
T1 construct: expressed in transfected cells; host or cells: mouse BaF3 cells, retroviral MSCV-Puro; the other entry of the earlier key: ETV6 (P41212, Transcription factor ETV6)
T1 sequence (P52333 822-1111 limits assumed): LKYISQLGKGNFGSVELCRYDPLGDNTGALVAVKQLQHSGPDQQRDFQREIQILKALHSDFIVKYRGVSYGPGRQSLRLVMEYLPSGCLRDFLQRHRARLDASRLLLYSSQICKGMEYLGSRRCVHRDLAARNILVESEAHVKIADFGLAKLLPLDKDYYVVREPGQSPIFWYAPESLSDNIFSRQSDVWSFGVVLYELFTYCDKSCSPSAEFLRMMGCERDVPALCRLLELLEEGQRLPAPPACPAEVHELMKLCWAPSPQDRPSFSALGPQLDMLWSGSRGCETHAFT
Protocol: as §1, §2

[8] = molecular target: T2, TEL-EGFR-BaF3 (stably expressing TEL-EGFR activated kinase) (Homo sapiens, UniProt P00533); test: Cell proliferation (Cell Titer-Glo), BaF3-tel-EGFR; assay type: cell-based; settings: BaF3-tel-EGFR (mouse BaF3 cells), 72 hours; read-out: Effects on cell proliferation (GI50)
T2 construct: expressed in transfected cells; host or cells: mouse BaF3 cells, retroviral MSCV-Puro; the other entry of the earlier key: ETV6 (P41212, Transcription factor ETV6)
T2 sequence (P00533 712-979 limits assumed): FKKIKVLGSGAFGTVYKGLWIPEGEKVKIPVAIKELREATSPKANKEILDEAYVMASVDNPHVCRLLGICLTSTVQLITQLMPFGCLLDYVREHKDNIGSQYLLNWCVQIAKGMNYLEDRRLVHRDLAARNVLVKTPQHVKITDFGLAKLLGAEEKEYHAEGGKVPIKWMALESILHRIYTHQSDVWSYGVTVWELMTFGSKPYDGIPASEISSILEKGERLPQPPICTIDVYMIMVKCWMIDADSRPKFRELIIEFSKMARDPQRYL
Protocol: as §1, §2

[9] = molecular target: T3, TEL-LYN-BaF3 cells (stably expressing TEL-LYN activated kinase) (Homo sapiens, UniProt P07948); test: Cell proliferation (Cell Titer-Glo), BaF3-tel-LYN; assay type: cell-based; settings: BaF3-tel-LYN (mouse BaF3 cells), 72 hours; read-out: Effects on cell proliferation (GI50)
T3 construct: expressed in transfected cells; host or cells: mouse BaF3 cells, retroviral MSCV-Puro; the other entry of the earlier key: ETV6 (P41212, Transcription factor ETV6)
T3 sequence (P07948 247-501 limits assumed): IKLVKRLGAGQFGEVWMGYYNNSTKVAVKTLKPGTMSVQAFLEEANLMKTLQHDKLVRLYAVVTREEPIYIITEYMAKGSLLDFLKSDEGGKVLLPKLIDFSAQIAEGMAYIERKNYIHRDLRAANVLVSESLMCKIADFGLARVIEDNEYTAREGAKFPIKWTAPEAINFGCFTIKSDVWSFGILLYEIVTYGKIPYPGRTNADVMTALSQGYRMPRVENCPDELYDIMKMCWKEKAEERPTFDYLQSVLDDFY
Protocol: as §1, §2

Chain of BTK protein kinase (Q06187 whole entry): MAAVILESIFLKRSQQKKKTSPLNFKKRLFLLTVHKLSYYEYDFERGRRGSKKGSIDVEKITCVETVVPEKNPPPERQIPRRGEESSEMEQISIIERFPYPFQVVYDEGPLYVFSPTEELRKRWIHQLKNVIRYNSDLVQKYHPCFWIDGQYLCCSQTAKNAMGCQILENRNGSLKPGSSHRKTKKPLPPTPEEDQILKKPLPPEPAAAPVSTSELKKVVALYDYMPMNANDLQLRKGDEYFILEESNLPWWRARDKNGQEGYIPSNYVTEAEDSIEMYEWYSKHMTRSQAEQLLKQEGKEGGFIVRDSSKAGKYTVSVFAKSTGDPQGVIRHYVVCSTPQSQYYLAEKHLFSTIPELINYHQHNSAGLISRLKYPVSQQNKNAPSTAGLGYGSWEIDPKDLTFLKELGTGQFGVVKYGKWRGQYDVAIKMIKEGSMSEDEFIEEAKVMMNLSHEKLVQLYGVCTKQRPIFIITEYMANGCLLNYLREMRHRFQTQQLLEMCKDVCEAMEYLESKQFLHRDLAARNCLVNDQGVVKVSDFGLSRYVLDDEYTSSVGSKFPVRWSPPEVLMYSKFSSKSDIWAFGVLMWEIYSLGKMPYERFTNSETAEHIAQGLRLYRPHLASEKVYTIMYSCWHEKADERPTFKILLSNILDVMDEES

## CCC(=O)Nc1cc(Nc2cc(-c3cccc(NC(=O)c4ccc(C(C)(C)C)cc4)c3C)cn(C)c2=O)ccc1C(=O)N1CCOCC1 [Compound 6, N-(3-(5-((3-propanamide-4-(morpholin-4-carbonyl)phenyl)amino)-1-methyl-6-oxo-1,6-dihydropyridin-3-yl)-2-methylphenyl)-4-(tert-butyl)benzamide]
BTK protein kinase; ADP-Glo assay, in words
  inhibitory effects on BTK protein: relatively strong inhibitory effects
BTK protein kinase
  IC50: 207 nM
[1]
  GI50: > 10 µM
[2]
  GI50: 0.75 µM
[3]
  GI50: > 10 µM
[4]
  GI50: > 10 µM
Leukemia cell OCI-AML-3
  GI50: 9.5 µM
[5]
  GI50: > 10 µM
[6]
  GI50: > 10 µM
Mouse pro-B cells BaF3
  GI50: 6.3 µM
[7]
  GI50: 4.6 µM
[8]
  GI50: 7.6 µM
[9]
  GI50: 6.8 µM

## C=CC(=O)Nc1cc(Nc2cc(-c3cccc(NC(=O)c4ccc(C(C)(C)C)cc4)c3C)cn(C)c2=O)ccc1C(=O)N1CCOCC1 [Compound 1, N-(3-(5-((3-acrylamide-4-(morpholin-4-carbonyl)phenyl)amino)-1-methyl-6-oxo-1,6-dihydropyridin-3-yl)-2-methylphenyl)-4-(tert-butyl)benzamide]
BTK protein kinase
  IC50: 7.09 nM
[1]
  GI50: 5.5 µM
[2]
  GI50: 0.001 µM
[3]
  GI50: 5.3 µM
[4]
  GI50: 4.8 µM
Leukemia cell OCI-AML-3
  GI50: 3.8 µM
[5]
  GI50: 7.1 µM
[6]
  GI50: 3 µM
Mouse pro-B cells BaF3
  GI50: 7.9 µM
[7]
  GI50: 3.2 µM
[8]
  GI50: 5.3 µM
[9]
  GI50: 6.3 µM

Source: patent US10669238B2, “Irreversible bruton's tyrosine kinase inhibitor” (HEFEI INSTITUTES OF PHYSICAL SCIENCE, CHINESE ACADEMY OF …, priority 2016, dated 2020)
